The test system of data set [1] is MRSA-2 biofilms. As to the kind of experiment: Biofilm eradication assay (MBEC). To be noted: for Biofilm Eradication MBEC: MRSA-2. It is filed as cell-based, Staphylococcus aureus. The method, then:
Biofilm eradication assays. […] The protocol for the biofilm eradication assays was essentially the same as the protocols reported in Eun et al., J. Am. Chem. Soc., 2012, 134, 11322 and Ceri et al., J. Clin. Microbiol., 1999, 37, 1771. Biofilm eradication assays were essentially biofilm dispersion assays with the addition of a final treatment with fresh media (and incubation at 37° C. for 24 hours) instead of crystal violet staining. This final incubation allowed viable cells within the biofilm to grow. At the end of this final incubation in biofilm eradication assays, microtiter wells void of turbidity represented eradicated biofilms, and the lowest concentration at which no visible growth was observed was referred to as the minimum biofilm eradication concentration (MBEC). Potent biofilm eradicating small molecules are extremely rare (Fletcher et al., Tetrahedron, 2014, 70, 6373; Jennings et al., ChemBioChem, 2014, 15, 2211). For these experiments, MRSA-2 was selected as the model since MRSA-2 is a multidrug-resistant, biofilm-forming clinical isolate of Staphylococcus aureus (Priyaja et al., Cytotechnol., 2014, doi: 10.1007/s10616-014-9765-5).

For data set [2], the system named is Pseudomonas aeruginosa (PAO1). As to the kind of experiment: MIC broth microdilution (CLSI), Luria Broth. It is filed as cell-based. To be noted: Table 1, PAO1, read-out: Pseudomonas aeruginosa MIC. Put shortly:
(§1)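 Two-fold serial dilutions (0.10–100 μM, eleven points) in Luria Broth, each well inoculated with 10^5 cells from log-phase culture (OD600 0.5), per CLSI broth microdilution. DMSO vehicle up to 1% v/v as negative control; kanamycin positive control for the staphylococci.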
A general note: In broth dilution the organism is exposed to a series of concentrations in liquid medium.

For data set [3], the system named is Staphylococcus epidermidis (ATCC 12228). Put plainly: MIC broth microdilution (CLSI), Luria Broth. The class given is cell-based. To be noted: for MIC: ATCC12228, Table 1, ATCC 12228, read-out: Staphylococcus epidermidis MIC; for fold more potent than compound 1: from MIC. Put shortly:
as §1

In data set [4] the test system is MRSA-2 biofilms. As to the kind of experiment: MRSA-2 biofilm dispersion assay. To be noted: Staphylococcus aureus, 24 h, read-out: MRSA-2 biofilm dispersion EC50. It is filed as cell-based.
Data set [5] has as its system MRSA-2. Put plainly: MIC against MRSA-2. To be noted: Staphylococcus aureus, read-out: MIC against MRSA-2. The class given is cell-based. The protocol: Antibiotic Susceptibility Tests (MIC Assay Protocol). The minimum inhibitory concentration (MIC) for each compound described herein was determined by the broth microdilution method as recommended by the Clinical and Laboratory Standards Institute (CLSI) (Clinical and Laboratory Standards Institute. 2009. Methods for dilution antimicrobial susceptibility tests for bacteria that grow aerobically; approved standard, eighth edition (M7-A8)). In a 96-well plate, eleven two-fold serial dilutions of each compound were made in a final volume of 100 μL Luria Broth (one column served as a blank; see the MIC assay described herein). Each well was inoculated with 10^5 bacterial cells at the initial time of incubation, prepared from a fresh log phase culture (OD600 of 0.5). […] The concentration range tested for each compound during this study was 0.10 to 100 μM. DMSO served as the vehicle and negative control in each microdilution MIC assay. DMSO was serially diluted at the same concentration as the compounds with a top concentration of 1% v/v. Bacterial strains used: Staphylococcus aureus (ATCC 25923), Staphylococcus epidermidis (ATCC 12228) and Pseudomonas aeruginosa (PAO1). […]
Vancomycin's activity against MRSA-2. Vancomycin was also evaluated against MRSA-2 since vancomycin has been considered to be the drug of last resort against MRSA infections.

A short description of data set [6]: Hydrolysis stability in sterile water. It is filed as physicochemical. To be noted: 24 hours at 37° C., static, TLC and NMR. The protocol:
Compound storage. Solid stocks of the compounds described herein were stored at −80° C. in vials sealed with PARAFILM. Between 2.0 and 4.5 milligrams of each compound was weighed out, and a 10 mM DMSO stock solution of each compound were prepared. DMSO stock solutions were stored at room temperature in the dark (e.g., wrapped in aluminum foil). At this concentration, a few compounds required gentle heating to completely solubilize. DMSO stock solutions were not subjected to any freeze-thaw cycles to prevent compound breakdown. The compounds were stable in DMSO for several weeks under these mild storage conditions, with the exception of pyocyanin. Pyocyanin is unstable in DMSO at room temperature after one day. […] DMSO stock solutions of about 2 milligrams of pyocyanin were made fresh each day. The hydrolysis stability of select compounds was also tested, e.g., by subjecting these compounds to conditions mimicking the biofilm assays described herein. In one set of exemplary experiments, 3.2 to 4.5 mgs of each of compounds 18a, 12a, 23a, and 21 were treated with 1 mL of sterile water to form a mixture. Each of the mixtures was allowed to be incubated for 24 hours at 37° C. under static conditions analogous to the S. aureus biofilm inhibition assays described herein. After 24 hours, each of the mixtures was extracted with dichloromethane and evaluated, using TLC and NMR, for hydrolysis of each of compounds 18a, 12a, 23a, and 21 to compound 11.

A word on the MIC: it is the smallest concentration in the dilution series that meets the test's criterion for growth inhibition. The term pEC50 denotes −log10 of the EC50, conventionally taken in molar units.

pEC50: −log10 of the molar value. ≈ marks a conversion by molar mass, not a printed value. Where “and” joins values, the source holds several entries; their conditions need not be identical. Equal values may be shown once. Marks after values point to notes of the source that are not given here.

`CCC(=O)Oc1c(Br)cc(Br)c2nc3ccccc3nc12` [Compound 4a]: in data set [1], the “Biofilm Eradication MBEC” value worked out at 125 µM.

In the case of `Oc1c(Br)cc(Br)c2nc3ccccc3nc12` [Compound 11, 2,4-Dibromophenazin-1-ol], the MIC in data set [2] was above 100 µM; in data set [3], 0.78 µM to 1.56 µM and 0.28 µg/mL to 0.55 µg/mL; in data set [5] it was 1.56 µM (≈ 0.552 µg/mL). Also, in data set [3], the “fold more potent than compound 1” value was found to be 32 fold. Besides, the “Biofilm Eradication MBEC” value in data set [1] is recorded as 100-200^c μM. Moreover, the “MBEC:MIC ratio” value in data set [1] (MRSA-2 biofilm vs planktonic) is on record as 64-128. In addition, the negative-log EC50 (pEC50) in data set [4] is 5.45.

With `O=C(Oc1c(Br)cc(Br)c2nc3ccccc3nc12)c1ccc(Br)cc1` [Compound 12a], the “stability to hydrolysis (to compound 11)” value in data set [6] was “stable to hydrolysis”.

For the compound `Cc1ccc(C(=O)Oc2c(Br)cc(Br)c3nc4ccccc4nc23)cc1` [Compound 18a], the “stability to hydrolysis (to compound 11)” value in data set [6] is “stable to hydrolysis”.

For the compound `CC(=O)Oc1c(Br)cc(Br)c2nc3ccccc3nc12` [Compound 21, 2,4-Dibromophenazin-1-yl acetate], in data set [3], the MIC is 0.78 µM and 0.31 µg/mL; the “fold more potent than compound 1” value is 64 fold. For the same compound, in data set [6], the “stability to hydrolysis (to compound 11)” value was “stable to hydrolysis”.

As for `O=C(Oc1c(Br)cc(Br)c2nc3ccccc3nc12)c1ccccc1` [Compound 23, 2,4-Dibromophenazin-1-yl benzoate], the MIC in data set [3] was 1.56 µM and 0.72 µg/mL.

Regarding `O=C(Oc1c(Br)cc(Br)c2nc3ccccc3nc12)c1ccco1` [Compound 23a], the “Biofilm Eradication MBEC” value in data set [1] is 62.5 to 100 µM. For the same compound, in data set [6], the “stability to hydrolysis (to compound 11)” value was “stable to hydrolysis”.

For the compound `O=C(OCC(Cl)(Cl)Cl)Oc1c(Br)cc(Br)c2nc3ccccc3nc12` [Compound 27a], in data set [1], the “Biofilm Eradication MBEC” value is 125 µM.

Values taken from patent publication US9856225B2, “Substituted phenazines as antimicrobial agents” (University of Florida Research Foundation, Incorporated, priority 2013, dated 2018).
